From ChEMBL document CHEMBL3596147, “Synthesis and antitumor activity of 5-(5-halogenated-2-oxo-1H-pyrrolo[2,3-b]pyridin-(3Z)-ylidenemethyl)-2,4-dimethyl-1H-pyrrole-3-carboxamides” (Bioorg Med Chem Lett, 2015)

Assays:
MCF7 [1] = assay: Cytotoxicity against human MCF7 cells assessed as inhibition of cell viability at 30 uM after 48 hrs by SRB assay; assay type: functional; settings: MCF7, 48 h
[2] = Cytotoxicity against human PANC1 cells assessed as inhibition of cell viability after 48 hrs by SRB assay; assay type: functional, cell-based; settings: PANC-1, 48 h
MCF7 [3] = assay: Cytotoxicity against human MCF7 cells assessed as inhibition of cell viability after 48 hrs by SRB assay; assay type: functional, cell-based; settings: MCF7, 48 h
HepG2 = assay: Cytotoxicity against human HepG2 cells assessed as inhibition of cell viability after 48 hrs by SRB assay; assay type: functional, cell-based; settings: HepG2, 48 h
HT-29 = assay: Cytotoxicity against human HT-29 cells assessed as inhibition of cell viability after 48 hrs by SRB assay; assay type: functional, cell-based; settings: HT-29, 48 h
HeLa = assay: Cytotoxicity against human HeLa cells assessed as inhibition of cell viability after 48 hrs by SRB assay; assay type: functional, cell-based
A549 = assay: Cytotoxicity against human A549 cells assessed as inhibition of cell viability after 48 hrs by SRB assay; assay type: functional, cell-based; settings: A549, 48 h
SK-OV-3 = assay: Cytotoxicity against human SKOV3 cells assessed as inhibition of cell viability after 48 hrs by SRB assay; assay type: functional, cell-based; settings: SK-OV-3, 48 h

Compound	inhibition at 30 µM (MCF7 [1])	IC50 [2]	IC50 (MCF7 [3])	IC50 (HepG2)	IC50 (HT-29)	IC50 (HeLa)	IC50 (A549)	IC50 (SK-OV-3)
CCOC(=O)c1c(C)[nH]c(/C=C2\C(=O)Nc3ncc(Cl)cc32)c1C	54.8%	–	–	–	–	–	–	–
Cc1[nH]c(/C=C2\C(=O)Nc3ncc(Cl)cc32)c(C)c1C(=O)NCCN1CCOCC1	6%	–	–	–	–	–	–	–
Cc1[nH]c(/C=C2\C(=O)Nc3ncc(Cl)cc32)c(C)c1C(=O)O	15.8%	–	–	–	–	–	–	–
Cc1[nH]c(/C=C2\C(=O)Nc3ncc(F)cc32)c(C)c1C(=O)NCC(C)O (configuration not stated)	0%	–	–	–	–	–	–	–
Cc1[nH]c(/C=C2\C(=O)Nc3ncc(F)cc32)c(C)c1C(=O)NCCOCc1ccccc1	4.1%	–	–	–	–	–	–	–
Cc1[nH]c(/C=C2\C(=O)Nc3ncc(Br)cc32)c(C)c1C(=O)NCCN1CCOCC1	6%	–	–	–	–	–	–	–
CCOC(=O)c1c(C)[nH]c(/C=C2\C(=O)Nc3ncc(Br)cc32)c1C	6.3%	–	–	–	–	–	–	–
Cc1[nH]c(/C=C2\C(=O)Nc3ncc(F)cc32)c(C)c1C(=O)NCC1CCN(C)CC1	78%	> 30 µM	> 30 µM	21.2 µM	5.72 µM	–	–	–
Cc1[nH]c(/C=C2\C(=O)Nc3ncc(Cl)cc32)c(C)c1C(=O)NCC1CCN(C)CC1	88.4%	> 30 µM	> 30 µM	12.7 µM	5.57 µM	> 30 µM	16.9 µM	16.4 µM
Cc1[nH]c(/C=C2\C(=O)Nc3ncc(Br)cc32)c(C)c1C(=O)NCCN1CCCC1	86.9%	6.2 µM	15.1 µM	9.36 µM	4.49 µM	15.4 µM	4.82 µM	5.15 µM
CCN(CC)CCNC(=O)c1c(C)[nH]c(/C=C2\C(=O)Nc3ncc(Cl)cc32)c1C	88.9%	14 µM	26.3 µM	12.4 µM	6.93 µM	29.4 µM	10.3 µM	8.28 µM
Cc1[nH]c(/C=C2\C(=O)Nc3ncc(Cl)cc32)c(C)c1C(=O)NC1CC1	6.2%	–	–	–	–	–	–	–
CCN(CC)CCNC(=O)c1c(C)[nH]c(/C=C2\C(=O)Nc3ncc(Br)cc32)c1C	89.7%	15.6 µM	27.8 µM	12 µM	3.99 µM	26.7 µM	6.46 µM	11.8 µM
Cc1[nH]c(/C=C2\C(=O)Nc3ncc(Br)cc32)c(C)c1C(=O)NCCN(C)C	79.4%	11.6 µM	14.1 µM	6.57 µM	5.04 µM	17.9 µM	4.57 µM	4.98 µM
Cc1[nH]c(/C=C2\C(=O)Nc3ncc(F)cc32)c(C)c1C(=O)O	20.5%	–	–	–	–	–	–	–
Cc1[nH]c(/C=C2\C(=O)Nc3ncc(F)cc32)c(C)c1C(=O)NCCN1CCOCC1	15.6%	–	–	–	–	–	–	–
CCN(CC)CCNC(=O)c1c(C)[nH]c(/C=C2\C(=O)Nc3ccc(F)cc32)c1C [SUNITINIB]	94%	14.9 µM	25.4 µM	16.1 µM	4.7 µM	> 30 µM	7.93 µM	9.21 µM
Cc1[nH]c(/C=C2\C(=O)Nc3ncc(Cl)cc32)c(C)c1C(=O)NCCN1CCCC1	91.3%	10.3 µM	15.6 µM	7.87 µM	12.5 µM	24.5 µM	11.4 µM	16.1 µM
CCN(CC)CCNC(=O)c1c(C)[nH]c(/C=C2\C(=O)Nc3ncc(F)cc32)c1C	70.7%	> 30 µM	> 30 µM	15 µM	6.27 µM	–	–	–
Cc1[nH]c(/C=C2\C(=O)Nc3ncc(Br)cc32)c(C)c1C(=O)O	19.6%	–	–	–	–	–	–	–
Cc1[nH]c(/C=C2\C(=O)Nc3ncc(Cl)cc32)c(C)c1C(=O)NCCN(C)C	45.7%	–	–	–	–	–	–	–
Cc1[nH]c(/C=C2\C(=O)Nc3ncc(F)cc32)c(C)c1C(=O)NCCOc1ccccc1	2.8%	–	–	–	–	–	–	–
Cc1[nH]c(/C=C2\C(=O)Nc3ncc(F)cc32)c(C)c1C(=O)NCCN(C)C	61.1%	–	–	–	–	–	–	–
Cc1[nH]c(/C=C2\C(=O)Nc3ncc(F)cc32)c(C)c1C(=O)NCCN1CCCC1	37.5%	–	–	–	–	–	–	–
CCOC(=O)c1c(C)[nH]c(/C=C2\C(=O)Nc3ncc(F)cc32)c1C	60.4%	–	–	–	–	–	–	–
Cc1[nH]c(/C=C2\C(=O)Nc3ncc(Br)cc32)c(C)c1C(=O)NCC1CCN(C)CC1	82.8%	26.9 µM	> 30 µM	21.8 µM	5.57 µM	> 30 µM	15.2 µM	19.2 µM
Cc1[nH]c(/C=C2\C(=O)Nc3ncc(Br)cc32)c(C)c1C(=O)NC1CC1	5.5%	–	–	–	–	–	–	–
Cc1[nH]c(/C=C2\C(=O)Nc3ncc(F)cc32)c(C)c1C(=O)NC1CC1	6.3%	–	–	–	–	–	–	–
